For series [1] the following is noted: in vivo.
For series [2] the following is noted: description of the substance; cited from earlier work.
A short description of series [3]: clinical. The settings on record: human, in vivo.

The structures appear in SMILES notation. Where two headings read alike, the source gives them in different places.

Regarding `CC1(C)O[C@@H]2C[C@H]3[C@@H]4C[C@H](F)C5=CC(=O)C=C[C@]5(C)[C@@]4(F)[C@@H](O)C[C@]3(C)[C@]2(C(=O)CO)O1` [fluocinolone acetonide, (6,11,16)-6,9-difluoro-11,21-dihydroxy-16,17-[(1-methylethylidene)bis(oxy)]-pregna-1,-4-diene-3,20-dione], in series [1], the “Percutaneous absorption of unchanged drug into the systemic circulation” value was “minimal” and the Post-dose plasma concentrations entry is “undetectably low”. Moreover, the “Stability of the drug substance (light, air, moisture)” value (shortened to “Stability of the drug substance”) in series [2] is listed as “stable in light”.
A word on the Cmax: it is the peak of the concentration-time curve. `Oc1ccc(O)cc1` [hydroquinone, 1,4-benzenediol]: in series [1] (human, 8 weeks), the “Number of subjects with quantifiable plasma concentrations” value was 8 and the “Subjects with quantifiable plasma concentrations” value was found to be 18%. Besides, in series [1], the “Percutaneous absorption of unchanged drug into the systemic circulation” value is given as “minimal” and the Post-dose plasma concentrations result is listed as “undetectably low”. Besides, the Cmax in series [3] lay in the range of 25.6 to 86.5 ng/mL. Also, the “Stability of the drug substance” value in series [2] is reported as “darken on exposure to air”.
For `CC1=C(/C=C/C(C)=C/C=C/C(C)=C/C(=O)O)C(C)(C)CCC1` [tretinoin, (all-E)-3,7-dimethyl-9-(2,6,6-trimethyl-l-cyclohexen-1-yl)-2,4,6,8-nonatetraenoic acid], the Cmax in series [1] (human) lay in the range of 2.0 to 4.99 ng/mL; in series [3], 2.01 to 5.34 ng/mL. The “Percutaneous absorption of unchanged drug into the systemic circulation” value in series [1] was “minimal”. For the same compound, the “Stability of the drug substance” value in series [2] was “highly reactive to light and moisture”.

Values taken from patent US20060099173A1, “Topical skin care composition” (priority 2003, published 2006).
